Results from paper PMC12749748, “Chemically-induced degradation of the endoplasmic-reticulum stress sensor IRE1 by a VHL-recruiting chimera” (Nature Communications, 2025).

How the values were obtained:
[1] = target: T1, human IRE1.KR (Homo sapiens, UniProt O75460); assay: Surface plasmon resonance, binary interaction with IRE1.KR; assay type: binding; details: SPR, immobilised IRE1.KR, 20 °C, 1 to 1 kinetic model
T1 construct: Recombinant human IRE1.KR (G547-L977) was purified using an established protocol; His6 (with TEV protease cleavage site) (N, cleaved yes); made in house; host or cells: Sf9
Procedure: All SPR experiments in this paper were recorded on a Biacore S200 instrument; all protein captures and data collection were at 20 °C.
For binary interactions with G6374: a Xantec SAHC 200 M (streptavidin) chip was inserted into the instrument and primed into running buffer [50 mM HEPES (pH 7.4), 150 mM NaCl, 0.001% Tween 20, 0.2% PEG3350, 0.25 mM TCEP, and 2% DMSO]. Biotinylated human IRE1.KR protein was captured on FC2 to 2-4000 RU, biotinylated VHL in complex with Elongin B (VHL/EloB) was captured on FC4 to 1-2000 RU, data were collected, and all referenced to FC1. Affinity for G6374 was measured using a titration series, injected from low to high with an 8-point, 2-fold dilution dose response with a top concentration of 0.5 μM in both single cycle (single cycle kinetics (SCK)) and multi cycle kinetics (MCK) formats. For MCK experiments, an association time of 45 s and a dissociation time of 200 s with a flow rate of 50 μL/min. For SCK experiments, an association time of 45 s and a dissociation time of 2000 s with a flow rate of 50 μL/min were used. All data were analyzed using Insight software (Cytiva) using a 1 to 1 kinetic binding model.

[2] = target: T2, IRE1 (Homo sapiens, UniProt O75460+P40337); assay: NanoLuc signal IRE1 depletion, WT IRE1-NanoLuc, HEK293T cells; assay type: cell-based
T2 construct: N2731 (HaloTag-VHL); host or cells: HEK293T
Procedure: 8 × 10^5 293T cells per well were seeded in 6-well plates (Costar, #3516) and incubated at 37 °C, 5% CO2 for 6 h. A mixture of 0.2 µg ERN1 (IRE1)-NanoLuc Fusion Vector (Promega, NV1321), 2 µg HaloTag-VHL Fusion Vector (Promega, N2731), 6 µl FuGENE HD Transfection Reagent (Promega, E2311), and 100 µL Opti-MEM I reduced serum medium (Gibco, #31985062) per well was incubated at room temperature for 20 min before adding to cells. For expression of IRE1 mutants, site-directed mutagenesis was performed using the ERN1-NanoLuc Fusion Vector as the DNA template, and the transfection mixture was prepared in the same way as WT IRE1. After 18 h, cells from 6-well plates were trypsinized, resuspended in Opti-MEM I reduced serum medium, and reseeded into 96-well plates (Costar, #3917), with or without the addition of HaloTag NanoBRET 618 Ligand (Promega, G9801). After 18 h of incubation, a titration of G6374 (dilutions made in Opti-MEM I reduced serum medium) was added to the cells. After 2 h of G6374 treatment, NanoBRET Nano-Glo Substrate (Promega, N1571) was added to cells. The 96-well plates were imaged by GloMax Discover Microplate Reader (Promega, GM3000) with the default “BRET: NanoBRET 618” protocol (Donor: 450 BP; Acceptor: 600 LP; Integration: 0.3 s). Data analysis was performed according to the user manual.

[3] = target: T3, IRE1 (Homo sapiens, UniProt O75460); assay: SelectScreen kinase profiling, IRE1; assay type: biochemical; details: 1 µM, 1 h
Procedure: (§1) The kinome selectivity of G6374 was assessed at 1 μM for 1 h versus a panel of 220 human kinases (SelectScreen Kinase Profiling Services, Thermo Fisher Scientific). The assays were conducted using either the Z’-LYTE technology to assess inhibition of enzyme activity ([ATP] = Km) or the TR-FRET-based LanthaScreen Eu Kinase Binding assay to assess competitive displacement of an ATP site binding probe. Assay results were normalized to positive and negative controls to determine percent inhibition. Image was created by KNIME Report Designer (KNIME.com AG, Zurich, Switzerland). Kinases for which ATP binding was inhibited by more than 90% were further examined by IB analysis for depletion by G6374 in AMO1 cells (4 h incubation).

[4] = test system: Colo201 cells; assay: Incucyte cell confluency, Colo201 cells; assay type: cell-based; details: Colo201 shIRE1 cells, titration
Procedure: For non-adherent AMO1, KMS27, and OPM2 cells, cells were plated at 5000 cells/well in ultra-low attachment (ULA) 96-well plates (Costar, #7007) and centrifuged at 600 × g for 5 min for spheroid formation. For adherent U2OS and Colo201 cells, 2000 cells/well were seeded in a clear flat-bottom 96-well plate (Costar, #3595). Treatments were added at the time of cell seeding, and cells were cultured in complete RPMI media to a final volume of 200 µL/well. Cultures were maintained at 37 °C throughout the duration of the experiment. Cell confluency was tracked using the Incucyte live-cell imaging system (Sartorius S3). Picture frames were captured every 4 h with a 4× objective, and cell confluency (%) from the total well area as a function of time was calculated using the Incucyte software (version 2023 A Rev2).

[5] = target: T3, IRE1; assay: Immunoblot of endogenous IRE1 depletion in KMS27 cells; assay type: cell-based; parameters: Immunoblot (IB) analysis of endogenous IRE1 depletion in AMO1 cells; endogenous in cells; host or cells: AMO1, KMS27, H929
Procedure: Cells were lysed in buffer containing 20 mM HEPES 7.2, 150 mM NaCl, and 1% Triton X-100, supplemented with fresh protease and phosphatase inhibitors (Invitrogen, #78440), cleared by centrifugation at 12,000 × g for 10 min, and analyzed by BCA protein assay (Thermo Fisher Scientific, #23227). Equal protein amounts were loaded, separated by SDS-PAGE, electrotransferred to nitrocellulose membranes using the iBLOT2 system (Invitrogen), and blocked in 5% nonfat milk solution for 60 min. Membranes were probed with primary antibodies at 1:1000 dilution in 5% milk at 4 °C overnight. Signal was detected using appropriate horseradish peroxidase (HRP)-conjugated secondary antibodies at 1:10,000 in 5% milk at room temperature for 1–2 h. Bands were visualized by the Azure 600 western blot imaging system (Azure Biosystems). For in vitro ubiquitination assays performed with Me-Ub, bands were visualized by the Odyssey CLx Imager (LI‑COR) after incubating the blots with the IRDye 800CW (LI-COR) secondary antibodies at 1:10,000 in Intercept Blocking Buffer (LI-COR) at room temperature for 1–2 h.

[6] = test system: panel of 220 human kinases; assay: SelectScreen kinase profiling, panel of 220 kinases; assay type: biochemical; details: 1 µM, 1 h, besides IRE1
Procedure: as §1

T3 sequence (O75460 19-977): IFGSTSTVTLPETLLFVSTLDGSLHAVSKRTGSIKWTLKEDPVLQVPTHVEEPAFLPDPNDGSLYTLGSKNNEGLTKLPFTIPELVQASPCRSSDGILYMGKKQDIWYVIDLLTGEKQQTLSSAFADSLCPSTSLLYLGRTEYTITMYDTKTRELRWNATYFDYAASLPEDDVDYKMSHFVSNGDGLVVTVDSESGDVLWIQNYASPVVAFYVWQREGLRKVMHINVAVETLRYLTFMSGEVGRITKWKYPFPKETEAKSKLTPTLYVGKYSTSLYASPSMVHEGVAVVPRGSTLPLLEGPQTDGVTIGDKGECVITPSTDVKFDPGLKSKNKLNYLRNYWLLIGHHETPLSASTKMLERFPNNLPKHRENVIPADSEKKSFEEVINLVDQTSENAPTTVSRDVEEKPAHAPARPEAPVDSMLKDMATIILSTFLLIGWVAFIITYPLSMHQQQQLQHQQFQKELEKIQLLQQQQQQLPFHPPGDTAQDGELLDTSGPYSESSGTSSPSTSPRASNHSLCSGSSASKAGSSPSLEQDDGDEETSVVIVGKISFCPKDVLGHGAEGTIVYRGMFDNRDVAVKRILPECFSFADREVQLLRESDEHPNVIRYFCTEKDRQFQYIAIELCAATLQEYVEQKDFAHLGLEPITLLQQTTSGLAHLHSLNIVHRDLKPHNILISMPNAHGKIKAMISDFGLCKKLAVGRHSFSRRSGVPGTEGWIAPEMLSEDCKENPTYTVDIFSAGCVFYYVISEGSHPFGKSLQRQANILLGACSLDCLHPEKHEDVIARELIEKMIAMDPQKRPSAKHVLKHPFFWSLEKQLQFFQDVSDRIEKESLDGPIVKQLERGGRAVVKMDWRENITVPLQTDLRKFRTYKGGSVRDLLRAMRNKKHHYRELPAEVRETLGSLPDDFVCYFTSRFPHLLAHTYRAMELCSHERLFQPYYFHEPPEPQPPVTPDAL
T1 sequence (O75460 547-977): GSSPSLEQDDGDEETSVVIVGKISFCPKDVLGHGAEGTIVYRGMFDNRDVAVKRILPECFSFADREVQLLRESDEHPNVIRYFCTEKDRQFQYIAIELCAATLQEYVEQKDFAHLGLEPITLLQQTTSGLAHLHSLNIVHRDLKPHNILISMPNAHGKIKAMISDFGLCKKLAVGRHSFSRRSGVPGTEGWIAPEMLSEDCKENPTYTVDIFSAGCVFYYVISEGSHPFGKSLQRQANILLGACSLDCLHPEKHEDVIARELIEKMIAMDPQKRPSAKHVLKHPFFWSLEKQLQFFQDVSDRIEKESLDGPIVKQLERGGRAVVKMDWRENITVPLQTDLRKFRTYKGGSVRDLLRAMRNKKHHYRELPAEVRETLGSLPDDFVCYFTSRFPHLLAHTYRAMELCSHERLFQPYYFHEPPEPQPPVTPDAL
T2 sequence (O75460 19-977): as the sequence (O75460 19-977) above
T2 sequence (P40337 whole entry): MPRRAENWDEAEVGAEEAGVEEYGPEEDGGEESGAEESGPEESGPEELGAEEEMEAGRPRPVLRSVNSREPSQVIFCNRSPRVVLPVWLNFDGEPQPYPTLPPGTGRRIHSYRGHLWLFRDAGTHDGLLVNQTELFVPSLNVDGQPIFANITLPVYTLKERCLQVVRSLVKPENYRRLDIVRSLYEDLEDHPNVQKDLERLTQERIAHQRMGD
T2 sequence (Q15369 whole entry partner): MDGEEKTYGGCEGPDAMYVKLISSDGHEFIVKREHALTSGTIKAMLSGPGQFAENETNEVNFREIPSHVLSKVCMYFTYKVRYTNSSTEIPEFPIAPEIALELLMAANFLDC
T2 sequence (Q15370 whole entry partner): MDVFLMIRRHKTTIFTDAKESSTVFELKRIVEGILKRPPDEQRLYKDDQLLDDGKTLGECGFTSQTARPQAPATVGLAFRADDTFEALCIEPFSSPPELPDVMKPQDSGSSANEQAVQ
T2 sequence (Q13617 whole entry partner): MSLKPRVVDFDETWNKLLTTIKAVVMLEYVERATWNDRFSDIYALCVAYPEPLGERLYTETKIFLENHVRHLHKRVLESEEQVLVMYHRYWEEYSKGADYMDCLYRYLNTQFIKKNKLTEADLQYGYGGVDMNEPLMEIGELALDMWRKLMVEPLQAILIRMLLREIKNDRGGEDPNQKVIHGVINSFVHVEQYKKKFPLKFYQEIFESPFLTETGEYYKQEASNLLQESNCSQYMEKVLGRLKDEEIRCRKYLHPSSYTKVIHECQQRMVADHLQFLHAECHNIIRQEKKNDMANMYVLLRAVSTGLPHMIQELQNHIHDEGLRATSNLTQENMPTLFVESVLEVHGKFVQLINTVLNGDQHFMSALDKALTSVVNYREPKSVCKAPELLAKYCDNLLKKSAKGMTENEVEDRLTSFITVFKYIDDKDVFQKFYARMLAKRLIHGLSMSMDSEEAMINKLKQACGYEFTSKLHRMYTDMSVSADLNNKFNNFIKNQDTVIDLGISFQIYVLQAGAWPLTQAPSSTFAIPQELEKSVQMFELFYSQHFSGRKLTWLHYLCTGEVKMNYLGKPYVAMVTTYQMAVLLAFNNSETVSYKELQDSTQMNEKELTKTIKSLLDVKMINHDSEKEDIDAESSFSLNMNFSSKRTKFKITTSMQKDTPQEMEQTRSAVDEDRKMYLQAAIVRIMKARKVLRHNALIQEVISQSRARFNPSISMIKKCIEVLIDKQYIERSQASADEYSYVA
T2 sequence (P62877 whole entry partner): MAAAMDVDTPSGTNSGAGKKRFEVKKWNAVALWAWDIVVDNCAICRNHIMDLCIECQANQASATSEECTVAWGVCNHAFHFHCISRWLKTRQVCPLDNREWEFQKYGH

Q: What does the source list for `Cc1ncsc1-c1ccc(CNC(=O)[C@@H]2C[C@@H](O)CN2C(=O)[C@@H](NC(=O)CCCCN2CCN([C@H]3CC[C@H](Nc4ncc5ccc(=O)n(C(C)C)c5n4)CC3)CC2)C(C)(C)C)cc1` [G6374]?
A: Kd [1]: 0.56 nM; kd [1]: 0.0025 s⁻¹; kon ([1]; read-out: ka): 4.95e+06 M⁻¹ s⁻¹; Dmax ([2]; HEK-293T, 2 h, n = 3, mean ± SEM): 78%; DC50 ([2]; estimated): 130 nM; inhibition of IRE1 [3]: complete inhibition; proliferation rate (cell confluency) [4]: did not affect the proliferation rate; Dmax ([5]; KMS-27, immunoblot quantification): 98%; DC50 ([5]; immunoblot quantification): 130 nM; number of other kinases inhibited by >90% [6]: 9
